Assay results as given in the NIST ThermoML archive (doi:10.1021/acs.jced.9b00041).
Numbers after ± are expanded uncertainties.

Legend:
[1] = 298.15 K; 101.33 kPa; Liquid; Vibrating tube method
[2] = wn = mass fraction of the nth substance listed; details: 298.15 K; 100 kPa; Liquid; Vibrating tube method; w2 = 0.089

mass density [1] [kg/m3]	mass density [2] [kg/m3]	Compound
1135.71 ± 10		CC(=O)CCC(=O)O [4-oxopentanoic acid]
	1202.57 ± 10	CC(O)C(=O)O (centres undefined) [2-hydroxypropanoic acid] + O
1202.57 ± 35		CC(O)C(=O)O (centres undefined) [2-hydroxypropanoic acid]

Compound	mass density [1] [kg/m3]	mass density [2] [kg/m3]
CCCC[n+]1ccn(C)c1.O=S(=O)([N-]S(=O)(=O)C(F)(F)F)C(F)(F)F	1436.46 ± 10	
